These results are taken from patent US12492337B2, “Fluorescent probe, preparation method therefor and use thereof” (FLUORESCENCE DIAGNOSIS (SHANGHAI) BIOTECH COMPANY, priority 2017, dated 2025).

Each structure is given as a SMILES string.

The test system of series [1] is HaloTag protein tag. Put plainly: Probe mixed with HaloTag protein tag, fluorescence spectrophotometer (Example 86). Type of series: biochemical. The note with it: 5 μM probe, 10 μM protein tag, 37° C., 1 hour; for Fluorescence enhancement: fluorescence activation multiple after binding protein tag; for Emission/nm: fluorescence emission wavelength. Here is the method:
(§1) A probe was mixed with a corresponding HaloTag protein tag to obtain a mixed sample. The final concentration of the probe in the mixed sample was 5 μM and the final concentration of the protein tag was 10 μM. The mixed sample was incubated at 37° C. for 1 hour, and the sample was detected using a fluorescence spectrophotometer.

For series [2], the system named is Hela-WT cells. The series can be described thus: Confocal imaging of Hela-WT cells without protein tag (Example 89). Format: cell-based. The settings on record: 5 μM probe, 2 hours, 37° C., confocal microscope. Here is the method: (§2) Hela cells are used as an example to test the labeling effect of compounds in mammalian cells. Hela cells and Hela-WT cells (Hela primitive cell, without a protein tag expressed) stably expressing HaloTag protein tags were planted in 14 mm 96-well glass bottom cell culture plates and stabilized for 10 hours. Probe 57, probe 59, probe 60, probe 61, probe 69, probe 75, probe 76, probe 82 were added to the culture medium and diluted to 5 μM, respectively. The cells were incubated in a 37° C. carbon dioxide incubator for 2 hours, and the fluorescence changes of the labeled cells were detected by imaging with a Leica TPS-8 confocal microscope.

Series [3] is described as follows: Quantum yield of free probe not reacted with protein tag. Format: physicochemical. As for the experimental part: as §1
In series [4] the test system is Hela cells stably expressing HaloTag protein tags. The series can be described thus: Confocal imaging of labeled Hela cells stably expressing HaloTag protein tags (Example 89). The settings on record: Homo sapiens, 5 μM probe, 2 hours, 37° C., confocal microscope, read-out: fluorescence signal enhancement in Hela cells expressing the protein tag. Format: cell-based. As for the experimental part:
as §2

The nature of series [5]: Viscosity responsiveness: fluorescence intensity in glycerol versus methanol. Format: physicochemical. The settings on record: fluorescence intensity in glycerol to that in methanol. The essentials: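 At 25 °C, with the same dye concentration and excitation wavelength, maximum emission intensity in glycerol was compared with intensity in methanol, giving a ratio. Dye concentrations ranged from 1×10^−7 M to 1×10^−5 M.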

The test system of series [6] is HaloTag protein tags in different subcellular organelles of Hela cells. The series can be described thus: Labeling HaloTag protein tags in different subcellular organelles of Hela cells (Example 90). The note with it: 0.2 μM probe, 2 hours, no washing; cytoskeleton, mitochondria, nucleus, Golgi, whole cells, lysosomes. Type of series: cell-based. As for the experimental part: In order to verify that probe 57, probe 59, probe 60, probe 61, probe 62, and probe 63 can be used to label target proteins located in different organelles. Hela cells were used as examples to detect the effect of probes on labeling HaloTag protein tags in different subcellular organelles. Hela cells were implanted 5000 cells per well in 96-well glass-bottom cell culture plates. After 14 hours, lipo2000 kit was used to transfect the plasmids localized by HaloTag protein tags in different organelles. The original culture medium was removed 24 hours after transfection, and the cells were washed twice with a phenol red-free DMEM medium, and incubated for 2 hours in a phenol red-free medium containing 0.2 μM probes, and the effect of cell labelling was detected by imaging using a Leica TCS-8 confocal microscope.

In series [7] the test system is HaloTag protein tag expressed in the liver. The series can be described thus: Labeling of HaloTag protein tag expressed in mouse liver, in vivo imaging system (Example 92). The arrangement: species or system mice. The note with it: 0.4 μM probe in 200 ul PBS via tail vein, 6 hours later. As for the experimental part: First, a plasmid pcdna3.1-HaloTag (sample group) expressing the HaloTag protein tag and a control plasmid pcdna3.1-CAT (control group) not expressing the HaloTag protein tag were introduced into mice. This method is to dissolve the plasmid in a large volume of solution and inject it into mice quickly through tail vein injection. The mouse liver absorbs DNA and then expresses the target protein. 20 hours after the plasmid injection, 0.4 μM probe 77 dissolved in 200 ul of PBS was injected into the mice via tail vein injection to label the HaloTag protein tag; 6 hours later, the mice were dissected out, and the fluorescence differences in the liver parts of different mouse samples were detected by KODAK multi-spectral in vivo imaging system.
The fluorescence of the liver of the control plasmid pcdna3.1-CAT injected with the probe 77 was very low, which was close to the background fluorescence level of the blank liver without the probe injected, and the liver of the HaloTag plasmid pcdna3.1-HaloTag injected with the probe 77 had strong fluorescence, and the signal intensity was more than 20 times that of the control group.

Consider `CN(C)c1cc2sc3cc(/C=C(\C#N)C(=O)NCCOCCOCCCCCCCl)sc3c2s1` [Probe 75], for which, in series [1], the “The quantum yield after binding to Halo-tag” value stood at 0.56, the Fluorescence enhancement is given as 589 and the Emission/nm is 620 nm. Further, in series [2], the “fluorescent signal in Hela-WT cells” value was “no corresponding fluorescent signal could be detected”. Also, the “The quantum yield of the free probe” value in series [3] was 0.0021. In series [4], the fold induction at 5 µM was around 200. Further, the ratio in series [5] was 500.

On to `CN(C)c1ccc2cc(/C=C(\C#N)C(=O)NCCOCCOCCCCCCCl)sc2c1` [Probe 63], for which, in series [1], the “The quantum yield after binding to Halo-tag” value is given as 0.70, the Fluorescence enhancement was 486 and the Emission/nm worked out at 570 nm. Besides, in series [3], the “The quantum yield of the free probe” value is 0.0015. Moreover, the ratio in series [5] amounted to 531. In addition, the “effect of cell labelling of subcellular organelles” value (from here on “effect”) in series [6] is recorded as “clearly display a variety of subcellular organelle structures without washing”.

Take `CN(C)c1ccc2nc(/C=C(\C#N)C(=O)NCCOCCOCCCCCCCl)oc2c1` [Probe 69]: in series [1], the “The quantum yield after binding to Halo-tag” value is recorded as 0.47, the Fluorescence enhancement was 491 and the Emission/nm turned out to be 610 nm. Besides, the “fluorescent signal in Hela-WT cells” value in series [2] was “no corresponding fluorescent signal could be detected”. In addition, the “The quantum yield of the free probe” value in series [3] is recorded as below 0.001. In addition, the fold induction at 5 µM in series [4] is around 200. The ratio in series [5] is reported as 317.

Regarding `CN(C)c1cc2c(s1)-c1sc(/C=C(\C#N)C(=S)NCCOCCOCCCCCCCl)cc1C2(C)C` [Probe 82], in series [1], the “The quantum yield after binding to Halo-tag” value is 0.51, the Fluorescence enhancement is 781 and the Emission/nm came out at 660 nm. In series [2], the “fluorescent signal in Hela-WT cells” value is “no corresponding fluorescent signal could be detected”. The “The quantum yield of the free probe” value in series [3] is recorded as below 0.001. For the same compound, the fold induction at 5 µM in series [4] is around 200. The ratio in series [5] amounted to 475.

As to `CN(C)c1ccc2nc(/C=C(\C#N)C(=O)NCCOCCOCCCCCCCl)ccc2c1` [Probe 62], in series [1], the “The quantum yield after binding to Halo-tag” value is 0.57, the Fluorescence enhancement worked out at 592 and the Emission/nm is 590 nm. In series [3], the “The quantum yield of the free probe” value is below 0.001. Further, the ratio in series [5] was determined as 711. Further, the “effect” value in series [6] was “clearly display a variety of subcellular organelle structures without washing”.

Consider `CN1CCSc2cc(/C=C(\C#N)C(=O)NCCOCCOCCCCCCCl)ccc21` [Probe 60], for which, in series [1], the “The quantum yield after binding to Halo-tag” value came out at 0.65, the Fluorescence enhancement was found to be 751 and the Emission/nm came to 520 nm. In addition, the “fluorescent signal in Hela-WT cells” value in series [2] is “no corresponding fluorescent signal could be detected”. In addition, in series [3], the “The quantum yield of the free probe” value came out at 0.0011. For the same compound, the fold induction at 5 µM in series [4] is around 200. For the same compound, the ratio in series [5] is recorded as 1199. In addition, in series [6], the “effect” value is given as “clearly display a variety of subcellular organelle structures without washing”.

For `N#C/C(=C\c1cc2c3c(c1)CCCN3CCC2)C(=O)NCCOCCOCCCCCCCl` [Probe 59], in series [1], the “The quantum yield after binding to Halo-tag” value turned out to be 0.45, the Fluorescence enhancement was found to be 498 and the Emission/nm came out at 500 nm. Further, the “fluorescent signal in Hela-WT cells” value in series [2] was “no corresponding fluorescent signal could be detected”. In addition, the “The quantum yield of the free probe” value in series [3] is recorded as below 0.001. Further, the fold induction at 5 µM in series [4] is around 200. In series [5], the ratio was 370. Moreover, the “effect” value in series [6] is given as “clearly display a variety of subcellular organelle structures without washing”.

As for `CN(C)c1cc2c(s1)-c1sc(/C=C(\C#N)C(=O)NCCOCCOCCCCCCCl)cc1C2(C)C` [Probe 76], in series [1], the “The quantum yield after binding to Halo-tag” value came to 0.58, the Fluorescence enhancement is given as 666 and the Emission/nm stood at 640 nm. For the same compound, the “fluorescent signal in Hela-WT cells” value in series [2] is reported as “no corresponding fluorescent signal could be detected”. In series [3], the “The quantum yield of the free probe” value is 0.0011. In addition, the fold induction at 5 µM in series [4] was around 200. The ratio in series [5] was found to be 386.

Turning to `CN(CCOC(=O)NCCOCCOCCCCCCCl)c1ccc(-c2ccc(/C=C(\C#N)c3nc4ccccc4o3)s2)s1` [Probe 42], in series [1], the “The quantum yield after binding to Halo-tag” value is recorded as 0.39, the Fluorescence enhancement was 375 and the Emission/nm was 702 nm. For the same compound, the “The quantum yield of the free probe” value in series [3] came out at 0.0013. Also, the ratio in series [5] is given as 178.

Turning to `CN(C)c1cc2c(s1)-c1sc(/C=C(\C#N)C(=O)OCCOCCOCCCCCCCl)cc1C2(C)C` [Probe 77], in series [1], the “The quantum yield after binding to Halo-tag” value is 0.53, the Fluorescence enhancement was 721 and the Emission/nm is on record as 652 nm. Besides, the “liver fluorescence signal intensity relative to the control group” value in series [7] (mice with pcdna3.1-HaloTag) is listed as “more than 20 times”. The “fluorescence of the liver of control plasmid pcdna3.1-CAT mice” value in series [7] (mice without HaloTag expression) was “very low”. Also, in series [3], the “The quantum yield of the free probe” value is reported as 0.0014. Moreover, the ratio in series [5] came out at 479.

As for `CN(CCOC(=O)NCCOCCOCCCCCCCl)c1ccc2cc(/C=C(\C#N)C(=O)OC(C)(C)C)sc2c1` [Probe 13], in series [1], the “The quantum yield after binding to Halo-tag” value is recorded as 0.56, the Fluorescence enhancement was 816 and the Emission/nm is 570 nm. Besides, the “The quantum yield of the free probe” value in series [3] is below 0.001. Moreover, the ratio in series [5] is given as 391.

With `CN(C)c1cc2c(s1)-c1sc(/C=C3\SC(=O)N(CCOCCOCCCCCCCl)C3=O)cc1C2(C)C` [Probe 78], in series [1], the “The quantum yield after binding to Halo-tag” value came out at 0.41, the Fluorescence enhancement came out at 369 and the Emission/nm is given as 660 nm. Moreover, in series [3], the “The quantum yield of the free probe” value is on record as below 0.001. Moreover, the ratio in series [5] was 452.

With `CN(CCOC(=O)NCCOCCOCCCCCCCl)c1cc2sc3cc(/C=C(\C#N)c4nc5ccccc5s4)sc3c2s1` [Probe 31], in series [1], the “The quantum yield after binding to Halo-tag” value is given as 0.41, the Fluorescence enhancement is 875 and the Emission/nm turned out to be 660 nm. For the same compound, the “The quantum yield of the free probe” value in series [3] was below 0.001. For the same compound, the ratio in series [5] is 1135.

Regarding `CN(CCOC(=O)NCCOCCOCCCCCCCl)c1ccc2cc(/C=C(\C#N)c3nc4ccccc4o3)sc2c1` [Probe 14], in series [1], the “The quantum yield after binding to Halo-tag” value was 0.52, the Fluorescence enhancement is recorded as 771 and the Emission/nm was determined as 610 nm. For the same compound, the “The quantum yield of the free probe” value in series [3] was below 0.001. Besides, the ratio in series [5] was 560.
